Experimental data taken from patent publication US20090170869A1, “PIPERAZINE DERIVATIVE HAVING AFFINITY FOR THE HISTAMINE H3 RECEPTOR” (priority 2007, published 2009).

Assays:
[1] = target: T1, brain histamine H3 receptor (Rattus norvegicus, UniProt Q9QYN8); assay: Rat ex vivo binding studies - rat brain histamine H3 receptor occupancy ([3H]-R-α-methylhistamine); assay type: in vivo; conditions: for inhibition of [3H]-R-α-methylhistamine specific binding to the H3 receptor (surrogate for rat brain H3 receptor occupancy): 10 mg/kg oral; for specific binding of [3H]-R-α-methylhistamine to the H3 receptor: rats n=3, 10 mg/kg oral, mean ± SEM
T1 construct: from tissue; host or cells: cerebral cortex homogenate of adult male Lister hooded rats
Description: Ex vivo binding studies were carried out to determine brain histamine H3 receptor occupancy in rats at certain time points after oral administration of a test compound.
Adult male rats (Lister hooded 200-250 g, Charles River, UK) received vehicle (1% w/v aqueous methylcellulose) (control) or the test compound (10 mg/kg) by oral gavage (n=3 per group) and were sacrificed 1 or 4 hours following oral dosing. The 1 hour and 4 hour studies were not necessarily done on the same day. Terminal blood samples were collected and brains rapidly removed. Cerebral cortex tissue was dissected from half of each brain for ex vivo binding; the other half brain can be used for pharmacokinetic analysis of brain concentrations of each compound. All dissected tissue samples were snap-frozen in liquid nitrogen, and stored at −80° C. until use. The tissues were rapidly thawed and homogenised in approximately 30 volumes of ice cold assay reaction buffer. The assay reaction buffer contained 50 mM Tris-HCl (made up using Trizma pre-set crystals pH 7.7 @25° C., Sigma cat. No. T8068-250G) and 5 mM EDTA, with a final buffer pH of 7.2 to 7.8, usually about 7.4. The crude homogenate (600-800 μg/well) was then used to measure H3 receptor binding using [^3H]-R-α-methylhistamine as radioligand. Assays measuring total binding of [^3H]-R-α-methylhistamine consisted of 50 μl assay reaction buffer, 400 μl of homogenate (corresponding to 600-800 μg/well) and 50 μl of 2 nM R(−)α-Methyl[imidazole-2,5(n)-3H]histamine dihydrochloride ([^3H]-R-α-methylhistamine; specific activity, 24 Ci mmol^−1, Amersham Biosciences, catalogue no. TRK1017). Incubations with [^3H]-R-α-methylhistamine were for 45 min at 30° C. Non-specific binding of [^3H]-R-α-methylhistamine was determined in parallel using the same assay except that 50 μl of 10 μM imetit (an H3 receptor agonist, e.g. available from Tocris) was used instead of the 50 μl of assay reaction buffer. The experiments were terminated by rapid filtration through Whatman GF/B filters (pre-soaked in 0.3% v/v polyethyleneimine (PEI)), and then the filters were washed through with 4×5 ml of ice cold harvesting buffer. The harvesting buffer contained 50 mM Tris-HCl (from Trizma pre-set crystals pH 7.7 @ 25° C.) and 5 mM MgCl2, with a final buffer pH of 7.2 to 7.8, usually about 7.4. Filters were dried and added to vials each containing 4 ml Ultima Gold MV scintillation fluid (Hewlett Packard) and radioactivity determined by liquid scintillation spectrometry using a Packard Tri-Carb 2500TR liquid scintillation counter.
Specific binding of [^3H]-R-α-methylhistamine to the H3 receptor was determined by the subtraction of the value obtained for non-specific binding from the value obtained for total binding.
Protein concentrations were determined using the Bradford assay method (Bio-Rad
Protein Assay Dye Reagent Concentrate, catalogue no. 500-0006; from Bio-Rad Laboratories GmbH, Heidemannstrasse 164, 80939 Muenchen, Germany; or from Bio-Rad, York, UK) with bovine serum albumin as a standard. Specific radioactivity in the samples was corrected for protein (i.e. per microgram of protein).
The specific binding of [^3H]-R-α-methylhistamine to the H3 receptor is expressed as a mean (n=3 rats)±SEM (standard error of the mean), as a percentage of vehicle-treated control animals. Data is also expressed as inhibition of [^3H]-R-α-methylhistamine specific binding to the H3 receptor, as a surrogate measure for H3 receptor occupancy by the test compound, calculated as 100% minus the % mean specific binding of [^3H]-R-α-methylhistamine to the H3 receptor.

[2] = Plasma clearance in the pig-PET study; assay type: in vivo; conditions: Yorkshire-Landrace, iv, 50 ug/kg, 50 micrograms/kg i.v.
[3] = system: male Sprague Dawley rats; assay: Toxicity Study 1: 7-day oral repeat-dose study in male Sprague Dawley rats; assay type: in vivo, rat; conditions: for tolerability: male rats
Description: Three male rats were added at each non-zero dose level for toxicokinetic evaluation. All doses and concentrations, including analyte concentration in plasma, are expressed in terms of the parent “free base” compound.
The following endpoints/parameters were evaluated for toxicology animals: clinical observations, body weights, food consumption measurements, selected haematology and selected clinical chemistry results, liver weights, selected macroscopic and microscopic observations, and selected hepatic gene expression analysis. Toxicokinetic evaluation (serial profiling) was performed on samples collected from satellite animals on Days 1 and 7. For male rats dosed at 30 or 100 mg/kg/day, histopathology observations carried out were on kidneys, mesentery and mandibular lymph node only. For male rats dosed at 0 mg/kg/day (control) and 300 mg/kg/day, histopathology observations carried out were on adrenals, brain, heart, kidneys, liver, lung, mandibular lymph node, mesentery, stomach, testes, and thymus (except that mandibular lymph node observations were for 0 mg/kg/day dosed rats only).

[4] = system: Sprague Dawley rats; assay: Toxicity Study 2: 7-day oral dose range-finding study in Sprague Dawley rats; assay type: in vivo, rat
Description: Three male rats and three female rats were added at 600 mg/kg/day and 3 female rats were added at 300 mg/kg/day for toxicokinetic evaluation.
The following endpoints/parameters were evaluated for toxicology animals: clinical observations, body weights, food consumption, selected haematology, selected clinical chemistry, liver weights, and selected macroscopic and microscopic observations. Toxicokinetic evaluation was performed on samples collected on Day 1 (300 and 600 mg/kg/day dosing) and Day 7 (300 mg/kg/day dosing only).

[5] = target: H3 receptor (Sus scrofa, UniProt A0A287B9V8); assay: Pig-PET study with [11C]GSK189254: pig brain H3 receptor occupancy over time and kon-koff limited model; conditions: 50 micrograms/kg i.v.; for Measured H3 receptor occupancy @ 10 min: 10 minutes post administration; for Measured H3 receptor occupancy @ 2.5 h: 2.5 hours post administration; for Measured H3 receptor occupancy @ 6 h: 6 hours post administration; for Kd: Kd (koff/kon)
[6] = rat, in vivo, po, 300 mg/kg/day
[7] = mean ± standard deviation, n=3 pigs

T1 sequence (Q9QYN8 whole entry): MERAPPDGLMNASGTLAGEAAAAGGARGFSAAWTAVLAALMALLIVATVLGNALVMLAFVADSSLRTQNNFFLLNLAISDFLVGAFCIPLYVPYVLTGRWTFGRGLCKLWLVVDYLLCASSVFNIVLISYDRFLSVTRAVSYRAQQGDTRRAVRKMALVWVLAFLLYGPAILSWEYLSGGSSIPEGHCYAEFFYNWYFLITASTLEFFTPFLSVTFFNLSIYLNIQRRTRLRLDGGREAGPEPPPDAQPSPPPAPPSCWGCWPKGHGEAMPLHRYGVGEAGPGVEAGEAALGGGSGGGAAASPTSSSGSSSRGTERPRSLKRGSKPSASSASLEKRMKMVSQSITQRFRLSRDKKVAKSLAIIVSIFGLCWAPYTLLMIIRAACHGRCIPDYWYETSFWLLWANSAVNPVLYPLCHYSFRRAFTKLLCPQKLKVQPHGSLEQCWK
Sequence of H3 receptor (A0A287B9V8 1-448): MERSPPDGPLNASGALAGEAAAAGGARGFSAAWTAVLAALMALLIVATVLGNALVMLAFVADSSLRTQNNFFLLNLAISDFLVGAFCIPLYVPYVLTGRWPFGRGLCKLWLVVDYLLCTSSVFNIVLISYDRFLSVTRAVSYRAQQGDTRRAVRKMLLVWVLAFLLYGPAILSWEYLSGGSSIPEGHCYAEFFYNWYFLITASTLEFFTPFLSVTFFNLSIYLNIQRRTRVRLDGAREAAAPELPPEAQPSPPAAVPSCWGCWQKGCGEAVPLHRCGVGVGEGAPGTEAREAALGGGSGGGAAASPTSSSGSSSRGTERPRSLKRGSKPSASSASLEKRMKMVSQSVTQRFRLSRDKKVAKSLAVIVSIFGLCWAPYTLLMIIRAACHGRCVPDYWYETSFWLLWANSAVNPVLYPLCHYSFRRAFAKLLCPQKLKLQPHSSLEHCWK

CC(C)N1CCN(C(=O)c2ccc(OC3CCOCC3)cc2)CC1.Cl [Example E1]
inhibition of [3H]-R-α-methylhistamine specific binding to the H3 receptor (surrogate for rat brain H3 receptor occupancy) ([1]; 1 hour after dosing): about 60% | inhibition of [3H]-R-α-methylhistamine specific binding to the H3 receptor (surrogate for rat brain H3 receptor occupancy) ([1]; 4 hours after dosing): about 16% | specific binding of [3H]-R-α-methylhistamine to the H3 receptor ([1]; sacrificed 1 hour after dosing): 40%+2% | specific binding of [3H]-R-α-methylhistamine to the H3 receptor ([1]; sacrificed 4 hours after dosing): 84%+6% | clearance ([2]; average model (from average plasma data)): 38.3 mL/min | clearance ([2]; mean of pigs 1-3): 41.7 mL/min | clearance ([2]; pig 1): 48.3 mL/min | clearance ([2]; pig 2): 50 mL/min | clearance ([2]; pig 3): 30 mL/min | tolerability ([3]; 300 mg/kg/day oral for 7 days (measured as free base)): moderately well tolerated | tolerability ([3]; 30 or 100 mg/kg/day oral for 7 days (measured as free base)): well tolerated | food consumption [3, 6]: ca. 0.80 × pretreatment | periarterial inflammatory cell infiltrate in the hilar region of the kidneys [3, 6]: minimal in severity, was noted in the hilar region of the kidneys of all four male rats | tolerability ([4]; conclusion from Toxicity Studies 1 and 2: male and female rats, 7 days oral, doses up to 300 mg/kg/day): well tolerated or moderately well tolerated | tolerability ([4]; female rats, 300 mg/kg/day oral for 7 days (measured as free base)): moderately well tolerated | tolerability ([4]; male or female rats, 600 mg/kg/day oral (only 2 days)): not tolerated | certain haematology and other clinical chemistry parameters [4, 6]: increased | clinical signs [4, 6]: chewing movements, rubbing chin on the cage floor, and certain other clinical signs | glandular dilation of the fundic region of the stomach [4, 6]: of minimal severity, was observed in most female rats | reduction in pig brain H3 receptor occupancy as compared to salt B ([5]; n=3 pigs, preliminary measurements): generally faster reduction | Measured H3 receptor occupancy @ 10 min [5, 7]: 58% ± 4% | Measured H3 receptor occupancy @ 10 min ([5]; pig 1): 61% | Measured H3 receptor occupancy @ 10 min ([5]; pig 2): 54% | Measured H3 receptor occupancy @ 10 min ([5]; pig 3): 58% | Measured H3 receptor occupancy @ 2.5 h [5, 7]: 30% ± 11% | Measured H3 receptor occupancy @ 2.5 h ([5]; pig 1): 43% | Measured H3 receptor occupancy @ 2.5 h ([5]; pig 2): 24% | Measured H3 receptor occupancy @ 2.5 h ([5]; pig 3): 22% | Measured H3 receptor occupancy @ 6 h [5, 7]: 14% ± 14% | Measured H3 receptor occupancy @ 6 h ([5]; pig 1): 30% | Measured H3 receptor occupancy @ 6 h ([5]; pig 2): 7% | Measured H3 receptor occupancy @ 6 h ([5]; pig 3): 5% | Kd ([5]; average model (from average plasma data and average occupancy)): 9.14 nM | Kd ([5]; mean of pigs 1-3): 9.08 nM | Kd ([5]; pig 1, in vivo PK/RO model): 4.47 nM | Kd ([5]; pig 2, in vivo PK/RO model): 9.35 nM | Kd ([5]; pig 3, in vivo PK/RO model): 13.4 nM
